In the NIST ThermoML archive (doi:10.1016/j.jct.2017.05.001):
Numbers after ± are expanded uncertainties.

Assay: wn = mass fraction of the nth substance listed
Details: Liquid; for mass density: Vibrating tube method

OCCN(CCO)CCO [triethanolamine] + O
mass density [kg/m3]
Details	w1 = 0.0992	w1 = 0.2	w1 = 0.2991	w1 = 0.4
333.15 K, 130000 kPa	1045.8 ± 0.8	1059 ± 0.8	1072.9 ± 0.8	1088.3 ± 0.9
333.15 K, 140000 kPa	1049.1 ± 0.8	1062.4 ± 0.8	1076 ± 0.8	1091.4 ± 0.9
353.15 K, 100 kPa	985.7 ± 0.7	999.5 ± 0.7	1013.6 ± 0.7	1029.7 ± 0.7
353.15 K, 500 kPa	985.7 ± 0.7	999.6 ± 0.7	1013.7 ± 0.7	1029.8 ± 0.7
353.15 K, 1000 kPa	985.9 ± 0.7	999.8 ± 0.7	1013.9 ± 0.7	1030 ± 0.7
353.15 K, 2000 kPa	986.4 ± 0.7	1000.1 ± 0.7	1014.3 ± 0.7	1030.4 ± 0.7
353.15 K, 5000 kPa	987.7 ± 0.7	1001.5 ± 0.7	1015.6 ± 0.7	1031.7 ± 0.7
353.15 K, 10000 kPa	989.9 ± 0.7	1003.7 ± 0.7	1017.8 ± 0.7	1033.9 ± 0.7
353.15 K, 15000 kPa	992.1 ± 0.7	1005.8 ± 0.7	1019.9 ± 0.7	1035.8 ± 0.7
353.15 K, 20000 kPa	994.1 ± 0.7	1007.8 ± 0.7	1021.9 ± 0.7	1037.9 ± 0.7
353.15 K, 30000 kPa	998.2 ± 0.7	1011.9 ± 0.7	1025.9 ± 0.7	1041.9 ± 0.7
353.15 K, 40000 kPa	1002.4 ± 0.7	1015.9 ± 0.7	1029.9 ± 0.7	1045.8 ± 0.7
353.15 K, 50000 kPa	1006.2 ± 0.7	1019.8 ± 0.7	1033.8 ± 0.7	1049.5 ± 0.7
353.15 K, 60000 kPa	1010.2 ± 0.7	1023.7 ± 0.7	1037.6 ± 0.7	1053.3 ± 0.7
353.15 K, 70000 kPa	1014 ± 0.7	1027.4 ± 0.7	1041.2 ± 0.7	1056.9 ± 0.7
353.15 K, 80000 kPa	1017.6 ± 0.7	1031.1 ± 0.7	1044.8 ± 0.7	1060.4 ± 0.8
353.15 K, 90000 kPa	1021.2 ± 0.7	1034.5 ± 0.7	1048.3 ± 0.7	1063.8 ± 0.8
353.15 K, 100000 kPa	1024.8 ± 0.7	1038.1 ± 0.7	1051.8 ± 0.8	1067.2 ± 0.8
353.15 K, 110000 kPa	1028.4 ± 0.7	1041.5 ± 0.7	1055.2 ± 0.8	1070.5 ± 0.8
353.15 K, 120000 kPa	1031.8 ± 0.7	1044.9 ± 0.7	1058.5 ± 0.8	1073.9 ± 0.8
353.15 K, 130000 kPa	1035.2 ± 0.7	1048.2 ± 0.8	1061.8 ± 0.8	1077.1 ± 0.8
353.15 K, 140000 kPa	1038.4 ± 0.7	1051.5 ± 0.8	1065 ± 0.8	1080.1 ± 0.9
373.15 K, 100 kPa	971.7 ± 0.7	985.1 ± 0.7	999.2 ± 0.7	1014.6 ± 0.7
373.15 K, 500 kPa	971.9 ± 0.7	985.3 ± 0.7	999.3 ± 0.7	1014.8 ± 0.7
373.15 K, 1000 kPa	972.2 ± 0.7	985.5 ± 0.7	999.6 ± 0.7	1015 ± 0.7
373.15 K, 2000 kPa	972.6 ± 0.7	986.1 ± 0.7	1000.1 ± 0.7	1015.5 ± 0.7
373.15 K, 5000 kPa	973.9 ± 0.7	987.4 ± 0.7	1001.5 ± 0.7	1016.8 ± 0.7
373.15 K, 10000 kPa	976.3 ± 0.7	989.7 ± 0.7	1003.8 ± 0.7	1019.1 ± 0.7
373.15 K, 15000 kPa	978.5 ± 0.7	991.9 ± 0.7	1006 ± 0.7	1021.2 ± 0.7
373.15 K, 20000 kPa	980.6 ± 0.7	994 ± 0.7	1008.2 ± 0.7	1023.4 ± 0.7

viscosity [mPa·s]
Details	w1 = 0.0992	w1 = 0.1	w1 = 0.2	w1 = 0.2991	w1 = 0.3	w1 = 0.4
353.15 K, 100 kPa, Concentric cylinders viscometry	–	0.469 ± 0.011	0.569 ± 0.013	–	0.81 ± 0.017	1.125 ± 0.024
353.15 K, 100 kPa, Falling or rolling sphere viscometry	0.4585 ± 0.015	–	0.5805 ± 0.019	0.8052 ± 0.026	–	1.124 ± 0.037
353.15 K, 5000 kPa, Falling or rolling sphere viscometry	0.451 ± 0.015	–	0.5825 ± 0.019	0.7994 ± 0.026	–	1.125 ± 0.037
353.15 K, 10000 kPa, Falling or rolling sphere viscometry	0.4541 ± 0.015	–	0.5878 ± 0.019	0.8046 ± 0.026	–	1.136 ± 0.037
353.15 K, 15000 kPa, Falling or rolling sphere viscometry	0.4547 ± 0.015	–	0.5898 ± 0.019	0.811 ± 0.027	–	1.146 ± 0.038
353.15 K, 20000 kPa, Falling or rolling sphere viscometry	0.4578 ± 0.015	–	0.5937 ± 0.019	0.8144 ± 0.027	–	1.154 ± 0.038
353.15 K, 25000 kPa, Falling or rolling sphere viscometry	0.4595 ± 0.015	–	0.5975 ± 0.02	0.821 ± 0.027	–	1.164 ± 0.038
353.15 K, 30000 kPa, Falling or rolling sphere viscometry	0.4619 ± 0.015	–	0.6006 ± 0.02	0.8266 ± 0.027	–	1.173 ± 0.039
353.15 K, 40000 kPa, Falling or rolling sphere viscometry	0.466 ± 0.015	–	0.6068 ± 0.02	0.8374 ± 0.028	–	1.193 ± 0.039
353.15 K, 60000 kPa, Falling or rolling sphere viscometry	0.4738 ± 0.016	–	0.6185 ± 0.02	0.8576 ± 0.028	–	1.229 ± 0.04
353.15 K, 80000 kPa, Falling or rolling sphere viscometry	0.4813 ± 0.016	–	0.6313 ± 0.021	0.8785 ± 0.029	–	1.266 ± 0.042
353.15 K, 100000 kPa, Falling or rolling sphere viscometry	0.4891 ± 0.016	–	0.6459 ± 0.021	0.9019 ± 0.03	–	1.306 ± 0.043
373.15 K, 5000 kPa, Falling or rolling sphere viscometry	0.3584 ± 0.012	–	0.444 ± 0.015	0.5867 ± 0.019	–	0.7909 ± 0.026
373.15 K, 10000 kPa, Falling or rolling sphere viscometry	0.356 ± 0.012	–	0.4475 ± 0.015	0.5894 ± 0.019	–	0.8001 ± 0.026
373.15 K, 15000 kPa, Falling or rolling sphere viscometry	0.3581 ± 0.012	–	0.451 ± 0.015	0.5951 ± 0.02	–	0.809 ± 0.027
373.15 K, 20000 kPa, Falling or rolling sphere viscometry	0.3595 ± 0.012	–	0.4534 ± 0.015	0.5996 ± 0.02	–	0.819 ± 0.027
373.15 K, 25000 kPa, Falling or rolling sphere viscometry	0.3618 ± 0.012	–	0.4562 ± 0.015	0.6046 ± 0.02	–	0.8242 ± 0.027
